Legend:
[1] = system: human Axioloids; experiment: Axioloid morphogenesis during Matrigel embedding phase (brightfield live imaging, length, segment and somite quantification); format: cell-based; conditions: added during MG embedding phase 72 h-120 h (RA 100 nM, ROL 10 μM, RAL 1 μM); 96 h and 120 h
Procedure: Human iPS cells were seeded on iMatrix-511 silk (Nippi) coated dishes at a density of 1.3×10^4 cells/well into 6 well plates 5 days prior to Axioloid induction and used at 60% confluency. All subsequent induction steps were performed in AK02N (Reprocell) medium without component C (AK02N-C). Initially, hiPSCs were pulsed with a strong mesoderm and primitive streak fate inducing combination of bFGF (20 ng ml-1) and WNT agonist CHIR99021 (5 μM) for 24 h. CHIR99021 concentration may need to be adjusted depending on the used iPSC line, but remains usually in the range of 3-5 μM. 24 h after the initial pulse, cells were dissociated with Accutase (Thermo Fisher Scientific) and cultured for 24 h in 96-well U-bottom low attachment plates (Sumilon) at 500 cells/well in 50 μl of AK02N—C based aggregation medium supplemented with CHIR99021 (5 μM), basic FGF (20 ng ml^1), TGFβ inhibitor SB431542 (10 μM) and ROCK inhibitor Y27632 (10 μM). 24 h after aggregation, 150 μl of AK02N-C medium was added into each well and exchanged again after 24 h with 150 μl of fresh AK02N-C medium. 48 h after aggregation Axioloids were transferred one-by-one into BSA-treated 96-well flat-bottom low attachment plates (Watson) and embedded into 80 μl of AK02N-C medium containing 10% growth factor-reduced Matrigel (Corning) and cultured further at 37° C. and 5% CO2 for 24 to 48 h. Depending on the experimental setup Retinoic Acid signaling molecules, i.e. Retinoic Acid (RA) (100 nM), Retinol (ROL) (10 μM) or all trans-Retinal (RAL) (1 μM) were added to the MG containing medium throughout the embedding phase. Small molecule inhibitors of FGF (PD173074 (250 nM)), WNT (XAV939 (2 μM)), RA (BMS493 (2.5 μM)) and Notch (DAPT (25 μM)) signaling were also added during the embedding phase and their effects on Axioloids assessed accordingly. For details of the used recombinant human proteins, small molecule agonists and inhibitors, please see Supplementary Table 1. […]
Periodicity of segmentation was quantified from brightfield live-cell imaging data obtained with an inverted Ti2 microscope system (Nikon) using PlanApo λ 10× objective. […]
Quantification of length or intensity based on imaging data was performed using Fiji^57. Rostrocaudal length of formed segments was quantified from a center plane in z-stack images of Phalloidin-stained Axioloids. The longitudinal axes of Axioloids were measured on bright field images using Segmented Line tool. For quantifying fluorescent intensity of HCR or IHC staining, first, maximum intensity z projection images were created from multi-channel z-stack confocal images, then intensity of each channel was quantified along the longitudinal axis of Axioloids by Segmented Line tool, with a line width which corresponds to approximately 80% of the lateral length of Axioloids. […]

[2] = system: segmentation clock gene HES7; experiment: HES7:Luciferase reporter oscillation of the segmentation clock in Axioloids; format: cell-based, human; conditions: RA, RAL or ROL, with or without MG
Procedure: Bioluminescence live-cell imaging of HES7-reporter (201B7Luc) iPSC-derived human Axioloids (201B7Luc) was performed and signal was quantified as previously described^55,56 Briefly, one day before imaging glass-bottom 96-well plates (Iwaki) were coated with 50 μl of 1.5% PVA (Nacalai), the PVA solution was hereby aspirated and the plates dried on top of a clean bench overnight at room temperature. Prior to imaging, Axioloids were set onto coated glass-bottom 96-well plates with 80 μl of AK02N-C medium containing […] D-Luciferin and 10% Matrigel. Small molecule agonists and antagonists of signaling pathways were added according to the experimental setup. Bioluminescence signals of Axioloids induced from the HES7-reporter cell line were recorded on IX83 (Olympus) equipped with iXon EMCCD camera (Andor) cultured in a stage top incubator (Tokai Hit). Signal was acquired with 2×2 binning and 1 min exposure. Cosmic rays were removed from the raw images by applying spike noise filter, then smoothed by median filter. Temporal fluctuation of signal baseline was corrected by background subtraction. Kymograph was generated by averaging luminescence intensity values along the lateral axis of Axioloids and resulted values were aligned in temporal order.
Periodicity of HES7 oscillation was quantified from time-series luminescence intensity data obtained from either live imaging or Kronos HT (Atto) measurements using HES7 reporter-derived Axioloids. For Kronos HT based oscillation measurements, Axioloids were transferred at 72 h (48 h after aggregation) into 24-well film-bottom plates (Eppendorf) covered in 400 μl of embedding medium (+/−MG) supplemented with D-Luciferin (100 μM) (bioWORLD). Axioloid containing culture plates were cultured at 37° C. and 5% CO2. Oscillations were measured for 48 hours and each well was measured for 10 seconds with 8 min intervals. Intensity values were processed using Matlab. Temporal trend was obtained by subtracting moving average (window size of 10 h), and the detrended signal was smoothed by Savitzky-Golay filter (window size of 3 h). Instantaneous oscillation phase was calculated by applying Hilbert transform, then peak detection was performed on cosine values of instantaneous oscillation phase. Peak-to-peak period was then quantified on each n-th oscillation.

SMILES: CC1=C(/C=C/C(C)=C/C=C/C(C)=C/C=O)C(C)(C)CCC1 [RAL, all trans-Retinal]
- stability and epithelialization of forming segments [1]: dramatic improvement of the stability and epithelialization of forming segments
- oscillatory activity including periodicity of HES7 [2]: largely no effect

Source: patent US20250223559A1, “AXIOLOID: A STEM CELL-BASED MODEL OF HUMAN AXIAL DEVELOPMENT” (KYOTO UNIVERSITY, priority 2022, published 2025)
